Measurements published in the NIST ThermoML archive (doi:10.1021/je4009238).

Legend:
[1] = refractive index (Na D-line) (dimensionless); xn = mol fraction of the nth substance listed; conditions: 101 kPa, Liquid
[2] = xn = mol fraction of the nth substance listed; conditions: 101 kPa, Liquid

CCCCn1cc[n+](C)c1.[Cl-] [1-butyl-3-methylimidazolium chloride] + CN(C)C=O
Conditions | mass density, [2] [kg/m3] | refractive index, [1] | viscosity, [2] [mPa·s]
288.15 K, x1 = 0.0086 | 957.7 | 1.43562 | 1.064
288.15 K, x1 = 0.0172 | 961.03 | 1.43757 | 1.13
288.15 K, x1 = 0.026 | 964.09 | 1.4401 | 1.234
288.15 K, x1 = 0.0351 | 967.36 | 1.44223 | 1.358
288.15 K, x1 = 0.0443 | 970.51 | 1.44442 | 1.441
288.15 K, x1 = 0.0541 | 973.65 | 1.4466 | 1.571
288.15 K, x1 = 0.0638 | 976.87 | 1.44861 | 1.678
288.15 K, x1 = 0.0738 | 979.65 | 1.45083 | 1.865
288.15 K, x1 = 0.0841 | 982.76 | 1.45282 | 2.004
288.15 K, x1 = 0.0947 | 985.77 | 1.45492 | 2.24
288.15 K, x1 = 0.1056 | 988.72 | 1.45766 | 2.397
288.15 K, x1 = 0.1167 | 991.56 | 1.45909 | 2.589
288.15 K, x1 = 0.1282 | 994.51 | 1.46111 | 2.95
288.15 K, x1 = 0.1399 | 997.33 | 1.46315 | 3.196
288.15 K, x1 = 0.152 | 1000.15 | 1.46516 | 3.685
298.15 K, x1 = 0.0086 | 948.35 | 1.43088 | 0.9285
298.15 K, x1 = 0.0172 | 951.98 | 1.43313 | 0.9836
298.15 K, x1 = 0.026 | 954.91 | 1.43537 | 1.069
298.15 K, x1 = 0.0351 | 958.49 | 1.43761 | 1.173
298.15 K, x1 = 0.0443 | 961.51 | 1.4398 | 1.234
298.15 K, x1 = 0.0541 | 964.75 | 1.44206 | 1.343
298.15 K, x1 = 0.0638 | 968.06 | 1.44422 | 1.444
298.15 K, x1 = 0.0738 | 970.86 | 1.44638 | 1.59
298.15 K, x1 = 0.0841 | 974.08 | 1.44852 | 1.679
298.15 K, x1 = 0.0947 | 977.24 | 1.45063 | 1.8
298.15 K, x1 = 0.1056 | 980.16 | 1.45271 | 1.978
298.15 K, x1 = 0.1167 | 983.01 | 1.45475 | 2.126
298.15 K, x1 = 0.1282 | 986.1 | 1.45676 | 2.379
298.15 K, x1 = 0.1399 | 988.96 | 1.45871 | 2.582
298.15 K, x1 = 0.152 | 991.87 | 1.46064 | 2.907
308.15 K, x1 = 0.0086 | 938.9 | 1.42611 | 0.8223
308.15 K, x1 = 0.0172 | 942.61 | 1.42836 | 0.8668
308.15 K, x1 = 0.026 | 945.63 | 1.4306 | 0.9394
308.15 K, x1 = 0.0351 | 949.34 | 1.43285 | 1.022
308.15 K, x1 = 0.0443 | 952.42 | 1.43505 | 1.097
308.15 K, x1 = 0.0541 | 955.77 | 1.43731 | 1.166
308.15 K, x1 = 0.0638 | 959.15 | 1.43948 | 1.239
308.15 K, x1 = 0.0738 | 962.05 | 1.44163 | 1.362
308.15 K, x1 = 0.0841 | 965.29 | 1.44378 | 1.432
308.15 K, x1 = 0.0947 | 968.56 | 1.4459 | 1.524
308.15 K, x1 = 0.1056 | 971.53 | 1.44799 | 1.665
308.15 K, x1 = 0.1167 | 974.49 | 1.45003 | 1.782
308.15 K, x1 = 0.1282 | 977.64 | 1.45205 | 1.963
308.15 K, x1 = 0.1399 | 980.61 | 1.45401 | 2.135
308.15 K, x1 = 0.152 | 983.6 | 1.45595 | 2.351
318.15 K, x1 = 0.0086 | 929.42 | 1.42147 | 0.7351
318.15 K, x1 = 0.0172 | 933.2 | 1.42379 | 0.772
318.15 K, x1 = 0.026 | 936.41 | 1.42611 | 0.8352
318.15 K, x1 = 0.0351 | 940.14 | 1.42842 | 0.8995
318.15 K, x1 = 0.0443 | 943.38 | 1.43069 | 0.9641
318.15 K, x1 = 0.0541 | 946.75 | 1.43303 | 1.026
318.15 K, x1 = 0.0638 | 950.28 | 1.43526 | 1.078
318.15 K, x1 = 0.0738 | 953.24 | 1.43748 | 1.175
318.15 K, x1 = 0.0841 | 956.58 | 1.4397 | 1.241
318.15 K, x1 = 0.0947 | 959.89 | 1.44188 | 1.311
318.15 K, x1 = 0.1056 | 962.99 | 1.44402 | 1.424
318.15 K, x1 = 0.1167 | 966.03 | 1.44612 | 1.518
318.15 K, x1 = 0.1282 | 969.28 | 1.4482 | 1.651
318.15 K, x1 = 0.1399 | 972.26 | 1.45021 | 1.796
318.15 K, x1 = 0.152 | 975.4 | 1.45219 | 1.944
